Laboratory results published in patent US8372878B2, “Aminoguanidines as melanocortin receptor ligands” (Anamar AB, priority 2006, dated 2013).

Experiments:
MC1-Receptor = MC1-Receptor (Mus musculus, UniProt Q01727); assay: Affinity for the MC1-receptor, binding assay with I125-NDP-αMSH as ligand; conditions: read-out: Affinity for MC-receptors Ki MC1
Procedure: Test 1. Affinity for the MC1-Receptor
The binding assay was carried out essentially as described by Lunec et al, Melanoma Res 1992; 2; 5-12, using I^125-NDP-αMSH as ligand.

MC1 = MC1 (Homo sapiens, UniProt Q01726); assay: Stimulation of cAMP, MC1; type: cell-based
Procedure: (§1) Test 3. cAMP The stimulation of cAMP was carried out essentially as described by Schiöth et al, Br J Pharmacol 1998; 124; 75-82.

MC3 [1] = molecular target: T1, MC3 (Homo sapiens, UniProt P41968); assay: Stimulation of cAMP, MC3; type: cell-based
Procedure: as §1

MC4 [2] = molecular target: T2, MC4 (Homo sapiens, UniProt P32245); assay: Stimulation of cAMP, MC4; type: cell-based
Procedure: as §1

MC5 [3] = molecular target: T3, MC5 (Homo sapiens, UniProt P33032); assay: Stimulation of cAMP, MC5; type: cell-based
Procedure: as §1

MC3 [4] = molecular target: T1, MC3; assay: Affinity for the MC3-receptors, binding assay with I125-NDP-αMSH as ligand; conditions: read-out: Affinity for MC-receptors Ki MC3
Procedure: (§2) Test 2. Affinity for the MC3-Receptors, the MC4-Receptors and the MC5-Receptors
(§3) The binding assays were carried out essentially as described by Szardenings et al, J Biol Chem 1997; 272; 27943-27948 and Schiöth et al, FEBS Lett 1997; 410; 223-228 using I^125-NDP-αMSH as ligand.

MC4 [5] = molecular target: T2, MC4; assay: Affinity for the MC4-receptors, binding assay with I125-NDP-αMSH as ligand; conditions: read-out: Affinity for MC-receptors Ki MC4
Procedure: as §2, §3

MC5 [6] = molecular target: T3, MC5; assay: Affinity for the MC5-receptors, binding assay with I125-NDP-αMSH as ligand; conditions: read-out: Affinity for MC-receptors Ki MC5
Procedure: as §2, §3

T2 sequence (P32245 whole entry): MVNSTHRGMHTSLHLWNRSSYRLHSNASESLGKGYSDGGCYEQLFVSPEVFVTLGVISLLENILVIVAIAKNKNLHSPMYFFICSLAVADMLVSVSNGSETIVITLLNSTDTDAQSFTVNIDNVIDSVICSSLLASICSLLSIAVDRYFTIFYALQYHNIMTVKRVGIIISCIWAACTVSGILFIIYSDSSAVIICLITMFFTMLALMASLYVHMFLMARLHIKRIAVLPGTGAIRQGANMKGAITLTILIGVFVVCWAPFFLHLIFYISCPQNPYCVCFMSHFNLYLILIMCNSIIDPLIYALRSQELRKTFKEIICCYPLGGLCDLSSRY
T3 sequence (P33032 whole entry): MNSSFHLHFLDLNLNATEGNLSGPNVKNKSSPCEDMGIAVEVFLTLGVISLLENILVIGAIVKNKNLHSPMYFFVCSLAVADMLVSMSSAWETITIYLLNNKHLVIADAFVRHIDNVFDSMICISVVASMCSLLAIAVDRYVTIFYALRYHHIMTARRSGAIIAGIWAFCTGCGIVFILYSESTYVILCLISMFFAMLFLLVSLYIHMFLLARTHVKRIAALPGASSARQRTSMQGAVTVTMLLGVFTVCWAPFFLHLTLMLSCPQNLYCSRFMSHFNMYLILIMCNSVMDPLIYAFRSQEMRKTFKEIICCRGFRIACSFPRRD
T1 sequence (P41968 whole entry): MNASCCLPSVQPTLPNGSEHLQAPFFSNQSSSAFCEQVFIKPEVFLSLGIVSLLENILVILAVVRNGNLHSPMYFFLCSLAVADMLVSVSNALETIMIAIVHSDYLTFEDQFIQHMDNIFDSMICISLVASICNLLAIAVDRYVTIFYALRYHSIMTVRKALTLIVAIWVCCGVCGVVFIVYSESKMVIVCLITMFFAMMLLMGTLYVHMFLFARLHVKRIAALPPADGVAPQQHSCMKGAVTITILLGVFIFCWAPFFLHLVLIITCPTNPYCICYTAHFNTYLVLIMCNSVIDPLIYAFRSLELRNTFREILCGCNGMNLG
Chain of MC1 (Q01726 whole entry): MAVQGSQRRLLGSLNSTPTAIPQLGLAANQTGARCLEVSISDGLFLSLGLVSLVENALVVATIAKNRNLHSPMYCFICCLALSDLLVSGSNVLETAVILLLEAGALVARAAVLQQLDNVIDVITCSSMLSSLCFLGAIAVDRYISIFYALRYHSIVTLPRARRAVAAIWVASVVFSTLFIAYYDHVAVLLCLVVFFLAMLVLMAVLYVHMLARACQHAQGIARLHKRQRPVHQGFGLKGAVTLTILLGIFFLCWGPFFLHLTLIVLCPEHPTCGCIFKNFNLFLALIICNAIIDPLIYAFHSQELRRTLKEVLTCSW
Chain of MC1-Receptor (Q01727 whole entry): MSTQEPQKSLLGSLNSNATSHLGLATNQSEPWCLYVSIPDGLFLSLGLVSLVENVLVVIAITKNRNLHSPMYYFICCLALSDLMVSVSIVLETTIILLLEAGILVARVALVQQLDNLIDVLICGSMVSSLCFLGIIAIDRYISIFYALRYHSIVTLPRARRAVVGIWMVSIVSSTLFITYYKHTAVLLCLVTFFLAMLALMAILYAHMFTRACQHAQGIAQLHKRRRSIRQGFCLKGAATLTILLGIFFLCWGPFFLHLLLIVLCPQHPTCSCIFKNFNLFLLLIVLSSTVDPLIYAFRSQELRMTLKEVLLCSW

Row | Ki (MC3 [4]) | Ki (MC4 [5]) | Ki (MC5 [6]) | SMILES | Ki (MC1-Receptor) | Influence on cAMP MC1c (MC1) | Influence on cAMP MC3c (MC3 [1]) | Influence on cAMP MC4c (MC4 [2]) | Influence on cAMP MC5c (MC5 [3])
1 | – | – | – | CCOC(=O)c1cccc(C=NNC(=N)N)c1Cl.O=C(O)C(F)(F)F [1:3, N-(2-Chloro-(3-ethoxycarbonyl)-benzylideneamino)guanidine trifluoroacetate] | 3.4 µM | 0 | 0 | 7 | 0
2 | 19.7 µM | 0.6 µM | 19.7 µM | CSc1c(Cl)cccc1C=NNC(=N)N.Cl [Compound 1:1, N-(2-Methylthio-3-chlorobenzylideneamino)guanidine hydrochloride] | 0.7 µM | 1 | 2 | 13 | 1
